Assay [1] has as its system Gabrb3^ECKO mice. Briefly: Self-grooming. In kind it is in vivo, mouse. The note with it: after prenatal treatment. How it is done: (§1) Behavioral Experiments: Mice were housed in our animal facility with a 12-hour light cycle with ad libitum access to food and water. Offspring stayed with their mothers until weaning at PND 21 after which males and females were separated. Before all behavioral testing, mice were acclimated to the testing room for 1 hour. Behavioral assays were performed according to established protocols referenced here: self-grooming, light-dark box, tail suspension test, Y-maze, open field locomotion activity, three chamber social interaction test and nest building with nestlets and with shredded paper. Both males and females were used for all behavioral assays. Experimenters scoring behaviors were blinded to the genotypes and treatment. Sample sizes for each assay are noted in figure legends.
Therefore, behavioral tests were performed to screen for stress, anxiety, locomotion, cognition, and sociability in saline-treated Gabrb3^fl/fl mice, saline-treated Gabrb3^ECKO mice and NAD^+-treated Gabrb3^ECKO mice. Mice from saline and NAD^+-treated groups were housed individually in cages containing wood chip bedding and two nestlets (pressed cotton) (FIGS. 16A-16D) or more naturalistic material like shredded paper strips (FIGS. 16E-16H). […] This rescue of home cage social behavior was a robust indication of well-being in NAD^+-treated Gabrb3^ECKO mice. […]

The test system of assay [2] is Gabrb3^ECKO mice. Description: Light-dark transition test. In kind it is in vivo, mouse. The conditions noted are these: after prenatal treatment. How it is done:
as §1
Anxiety was next assessed with the classic light-dark transition test which triggers a struggle between the desires to explore a novel environment versus natural aversion of a brightly illuminated open space. […] The Y maze spontaneous alternation test was used to evaluate for spatial learning and memory in the three groups of mice. After introduction to the center of the maze, the mice were given free access to all three arms. […] The total number of arm entries and the sequence of entries are recorded in order to calculate the percentage of alternation. […]

The structures appear in SMILES notation.

Take `NC(=O)c1ccc[n+]([C@@H]2O[C@H](COP(=O)([O-])OP(=O)(O)OC[C@H]3O[C@@H](n4cnc5c(N)ncnc54)[C@H](O)[C@@H]3O)[C@@H](O)[C@H]2O)c1` [NAD^+]: in the assay with Gabrb3^ECKO mice [1], the severe grooming behavior entry is reported as “ameliorated”. Besides, the “time in light vs dark sides” value in the assay with Gabrb3^ECKO mice [2] is “spent equivalent times between the light and dark sides of the open field”.

Values taken from US20220096515A1, “Methods and Formulations for Preventing Neurological or Psychiatric Disorders” (Huntington Medical Research Institutes, priority 2020, published 2022).
